Patent US10463730B2 (priority 2003, dated 2019)

System: xenogeneic GI-101A solid breast carcinoma tumors
Parameters: species or system nu-/nu-mice
Conditions: in vivo

## Nc1nc2c(ncn2COC(CO)CO)c(=O)[nH]1 [PBS+GCV, gancyclovir]
  Increase of average volume of tumors: 91.8%
